Data published in ChEMBL document CHEMBL3217708, “2-Anilinonicotinyl linked 1,3,4-oxadiazole derivatives: Synthesis, antitumour activity and inhibition of tubulin polymerization” (2011).

Key:
Tubulin (Bos taurus) = Tubulin (Bos taurus) (UniProt Q6B856+Q862L2+Q862F3); assay: Inhibition of bovine brain tubulin polymerization at 3 uM measured for 1 hr by fluorimetric assay
MDA-MB-231 = assay: Growth inhibition of human MDA-MB-231 cells after 48 hrs by sulforhodamine B assay; assay type: functional; settings: MDA-MB-231, 48 h
A549 [1] = assay: Induction of apoptosis in human A549 cells assessed as caspase-9 activation at 1 uM after 24 hrs by fluorimetry relative to control; assay type: functional
HepG2 = assay: Growth inhibition of human HepG2 cells after 48 hrs by sulforhodamine B assay; assay type: functional; settings: HepG2, 48 h
A549 [2] = assay: Inhibition of alpha-tubulin polymerization in human A549 cells assessed as ratio of soluble to polymerized tubulin at 1 uM after 24 hrs by western blot analysis; assay type: functional
A549 [3] = assay: Growth inhibition of human A549 cells after 48 hrs by sulforhodamine B assay; assay type: functional; settings: A549, 48 h
DU-145 = assay: Growth inhibition of human DU145 cells after 48 hrs by sulforhodamine B assay; assay type: functional; settings: DU-145, 48 h
A549 [4] = assay: Cell cycle arrest in human A549 cells assessed as accumulation at S phase at 1 uM after 48 hrs by propidium iodide staining based flow cytometry (reference value: 10%); assay type: functional
A549 [5] = assay: Cell cycle arrest in human A549 cells assessed as accumulation at G2/M phase at 1 uM after 48 hrs by propidium iodide staining based flow cytometry (reference value: 10%); assay type: functional
HeLa = assay: Growth inhibition of human HeLa cells after 48 hrs by sulforhodamine B assay; assay type: functional
A549 [6] = assay: Cell cycle arrest in human A549 cells assessed as accumulation at G1 phase at 1 uM after 48 hrs by propidium iodide staining based flow cytometry (reference value: 78%); assay type: functional
A549 [7] = assay: Induction of apoptosis in human A549 cells assessed as caspase-3 activation at 1 uM after 24 hrs by fluorimetry relative to control; assay type: functional

SMILES | inhibition (Tubulin (Bos taurus)) [%] | GI50 (MDA-MB-231) [nM] | fold change (FC) (A549 [1]) | GI50 (HepG2) [nM] | Ratio (A549 [2]) | GI50 (A549 [3]) [nM] | GI50 (DU-145) [nM] | Activity (A549 [4]) [%] | Activity (A549 [5]) [%] | GI50 (HeLa) [nM] | Activity (A549 [6]) [%] | fold change (FC) (A549 [7])
COc1cc(Nc2ncccc2-c2nnc(Nc3ccc(Cl)cc3)o2)cc(OC)c1OC | 38 | – | – | – | – | – | – | – | – | – | – | –
COc1cc(Nc2nnc(-c3cccnc3Nc3cc(OC)c(OC)c(OC)c3)o2)cc(OC)c1OC | 41 | – | – | – | – | – | – | – | – | – | – | –
COC(=O)Nc1nc2cc(C(=O)c3cccs3)ccc2[nH]1 [NOCODAZOLE] | 70 | 150 | 4 | 760 | 6 | 210 | 190 | 25 | 18 | 750 | 55 | 4
